Reference: ChEMBL document CHEMBL1130620, “New taxanes as highly efficient reversal agents for multidrug resistance in cancer cells” (Bioorg Med Chem Lett, 1998)

Tests used:
MCF7R [1] = assay: Cytotoxicity was evaluated at 1 uM concentration in MCF7-R cell line when co-administered with Paclitaxel; assay type: functional, cell-based; conditions: Homo sapiens
MCF7R [2] = assay: Compound was evaluated for multi-drug resistance (MDR) reversal at 1 uM concentration in MCF7-R cell line when co-administered with Paclitaxel; assay type: functional, Homo sapiens
MDA-MB-435 [3] = assay: Cytotoxicity was evaluated at 1 uM concentration in MDA 435/LCC6-MDR cell line when co-administered with Paclitaxel; assay type: functional, cell-based; conditions: Homo sapiens
MDA-MB-435 [4] = assay: Compound was evaluated for multi-drug resistance (MDR) reversal at 1 uM concentration in MDA 435/LCC6-MDR cell line when co-administered with Paclitaxel; assay type: functional, Homo sapiens
MCF7R [5] = assay: Cytotoxicity was evaluated at 3 uM concentration in MCF7-R cell line when co-administered with Paclitaxel; assay type: functional, cell-based; conditions: Homo sapiens
MCF7R [6] = assay: Compound was evaluated for multi-drug resistance (MDR) reversal at 3 uM concentration in MCF7-R cell line when co-administered with Paclitaxel; assay type: functional, Homo sapiens
MDA-MB-435 [7] = assay: Cytotoxicity was evaluated at 0.1 uM concentration in MDA 435/LCC6-MDR cell line when co-administered with Paclitaxel; assay type: functional, cell-based; conditions: Homo sapiens
MDA-MB-435 [8] = assay: Compound was evaluated for multi-drug resistance (MDR) reversal at 0.1 uM concentration in MDA 435/LCC6-MDR cell line when co-administered with Paclitaxel; assay type: functional, Homo sapiens
MDA-MB-435 [9] = assay: Cytotoxicity was evaluated at 3 uM concentration in MDA 435/LCC6-MDR cell line when co-administered with Paclitaxel; assay type: functional, cell-based; conditions: Homo sapiens
MDA-MB-435 [10] = assay: Compound was evaluated for multi-drug resistance (MDR) reversal at 3 uM concentration in MDA 435/LCC6-MDR cell line when co-administered with Paclitaxel; assay type: functional, Homo sapiens
MCF7R [11] = assay: Cytotoxicity was evaluated in MCF7-R cell line; assay type: functional, cell-based; conditions: Homo sapiens
MCF7R [12] = assay: Compound was evaluated for multi-drug resistance (MDR) reversal in MCF7-R cell line; assay type: functional, Homo sapiens
MDA-MB-435 [13] = assay: Cytotoxicity was evaluated in MDA 435/LCC6-MDR cell line; assay type: functional, cell-based; conditions: Homo sapiens
MDA-MB-435 [14] = assay: Compound was evaluated for multi-drug resistance (MDR) reversal in MDA 435/LCC6-MDR cell line; assay type: functional, Homo sapiens

## CC(=O)O[C@@]12CO[C@@H]1C[C@H](OC(=O)CCc1ccc(C(=O)c3ccccc3)cc1)[C@@]1(C)C(=O)[C@H](OC(=O)CCc3ccc(C(=O)c4ccccc4)cc3)C3=C(C)[C@@H](O)C[C@@](O)([C@@H](OC(=O)c4ccccc4)[C@H]21)C3(C)C
MCF7R [1]
  IC50: 2.6 nM
MCF7R [2]
  Reduction: 99.7%

## CC(=O)O[C@H]1C(=O)[C@]2(C)[C@@H](OC(=O)/C=C/c3ccc4ccccc4c3)C[C@H]3OC[C@@]3(OC(C)=O)[C@H]2[C@H](OC(=O)c2ccccc2)[C@]2(O)C[C@H](O)C(C)=C1C2(C)C
MCF7R [1]
  IC50: 36 nM
MCF7R [2]
  Reduction: 96%
MDA-MB-435 [3]
  IC50: 430 nM
MDA-MB-435 [4]
  Reduction: 50%

## CC(=O)O[C@@]12CO[C@@H]1C[C@H](OC(=O)OCC(Cl)(Cl)Cl)[C@@]1(C)C(=O)[C@H](OC(=O)OCC(Cl)(Cl)Cl)C3=C(C)[C@@H](OC(=O)/C=C/c4ccc5ccccc5c4)C[C@@](O)([C@@H](OC(=O)c4ccccc4)[C@H]21)C3(C)C
MCF7R [5]
  IC50: 750 nM
MCF7R [6]
  Reduction: 12%

## CC(=O)O[C@H]1C(=O)[C@]2(C)[C@@H](OC(=O)CCc3ccc4ccccc4c3)C[C@H]3OC[C@@]3(OC(C)=O)[C@H]2[C@H](OC(=O)c2ccccc2)[C@]2(O)C[C@H](O)C(C)=C1C2(C)C
MCF7R [1]
  IC50: 33 nM
MCF7R [2]
  Reduction: 96%

## CC(=O)O[C@H]1C(=O)[C@]2(C)[C@@H](OC(=O)CCC3CCC4CCCCC4C3)C[C@H]3OC[C@@]3(OC(C)=O)[C@H]2[C@H](OC(=O)C2CCCCC2)[C@]2(O)C[C@H](O)C(C)=C1C2(C)C (stereo partly specified)
MCF7R [1]
  IC50: 160 nM
MCF7R [2]
  Reduction: 81%

## CC(=O)O[C@H]1C(=O)[C@]2(C)[C@@H](OC(=O)/C=C/c3ccc4ccccc4c3)C[C@H]3OC[C@@]3(OC(C)=O)[C@H]2[C@H](OC(=O)c2ccccc2)[C@]2(O)C[C@H](OC(C)=O)C(C)=C1C2(C)C
MCF7R [5]
  IC50: 5.8 nM
MCF7R [6]
  Reduction: 99.3%
MDA-MB-435 [7]
  IC50: 340 nM
MDA-MB-435 [8]
  Reduction: 60%

## CC(=O)O[C@H]1C(=O)[C@]2(C)[C@@H](OC(=O)/C=C/c3ccc(C(=O)c4ccccc4)cc3)C[C@H]3OC[C@@]3(OC(C)=O)[C@H]2[C@H](OC(=O)c2ccccc2)[C@]2(O)C[C@H](OC(C)=O)C(C)=C1C2(C)C
MCF7R [5]
  IC50: 2.6 nM
MDA-MB-435 [7]
  IC50: 52 nM
MDA-MB-435 [9]
  IC50: 69 nM
MDA-MB-435 [8]
  Reduction: 94%
MDA-MB-435 [10]
  Reduction: 92%

## CC(=O)O[C@@]12CO[C@@H]1C[C@H](O)[C@@]1(C)C(=O)[C@H](O)C3=C(C)[C@@H](OC(=O)/C=C/c4ccc(C(=O)c5ccccc5)cc4)C[C@@](O)([C@@H](OC(=O)c4ccccc4)[C@H]21)C3(C)C
MCF7R [1]
  IC50: 860 nM
MCF7R [2]
  Reduction: 0%

## CC(=O)O[C@H]1C(=O)[C@]2(C)[C@@H](OC(=O)c3ccc4ccccc4c3)C[C@H]3OC[C@@]3(OC(C)=O)[C@H]2[C@H](OC(=O)c2ccccc2)[C@]2(O)C[C@H](O)C(C)=C1C2(C)C
MCF7R [1]
  IC50: 21 nM

## CC(=O)O[C@H]1C(=O)[C@]2(C)[C@@H](OC(C)=O)C[C@H]3OC[C@@]3(OC(C)=O)[C@H]2[C@H](OC(=O)/C=C/c2ccc(C(=O)c3ccccc3)cc2)[C@]2(O)C[C@H](OC(C)=O)C(C)=C1C2(C)C
MDA-MB-435 [7]
  IC50: 630 nM
MDA-MB-435 [8]
  Reduction: 27%

## CC(=O)O[C@@]12CO[C@@H]1C[C@H](O)[C@@]1(C)C(=O)[C@H](OC(=O)/C=C/c3ccc(C(=O)c4ccccc4)cc3)C3=C(C)[C@@H](O)C[C@@](O)([C@@H](OC(=O)c4ccccc4)[C@H]21)C3(C)C
MCF7R [1]
  IC50: 42 nM
MCF7R [2]
  Reduction: 95%

## CC(=O)O[C@@]12CO[C@@H]1C[C@H](OC(=O)OCC(Cl)(Cl)Cl)[C@@]1(C)C(=O)[C@H](OC(=O)OCC(Cl)(Cl)Cl)C3=C(C)[C@@H](OC(=O)CCc4ccc5ccccc5c4)C[C@@](O)([C@@H](OC(=O)c4ccccc4)[C@H]21)C3(C)C
MCF7R [5]
  IC50: 860 nM
MCF7R [6]
  Reduction: 0%

## CC(=O)O[C@@]12CO[C@@H]1C[C@H](OC(=O)/C=C/c1ccc3ccccc3c1)[C@@]1(C)C(=O)[C@H](OC(=O)/C=C/c3ccc4ccccc4c3)C3=C(C)[C@@H](O)C[C@@](O)([C@@H](OC(=O)c4ccccc4)[C@H]21)C3(C)C
MCF7R [1]
  IC50: 470 nM
MCF7R [2]
  Reduction: 45%

## CC(=O)O[C@@]12CO[C@@H]1C[C@H](OC(=O)OCC(Cl)(Cl)Cl)[C@@]1(C)C(=O)[C@H](OC(=O)OCC(Cl)(Cl)Cl)C3=C(C)[C@@H](OC(=O)/C=C/c4ccc(C(=O)c5ccccc5)cc4)C[C@@](O)([C@@H](OC(=O)c4ccccc4)[C@H]21)C3(C)C
MCF7R [5]
  IC50: 170 nM
MCF7R [6]
  Reduction: 80%

## CC(=O)O[C@@]12CO[C@@H]1C[C@H](OC(=O)CCc1ccc(C(=O)c3ccccc3)cc1)[C@@]1(C)C(=O)[C@H](OC(=O)CCc3ccc(C(=O)c4ccccc4)cc3)C3=C(C)[C@@H](OC(=O)CCc4ccc(C(=O)c5ccccc5)cc4)C[C@@](O)([C@@H](OC(=O)c4ccccc4)[C@H]21)C3(C)C
MDA-MB-435 [7]
  IC50: 860 nM
MDA-MB-435 [8]
  Reduction: 0%

## CC(=O)O[C@@]12CO[C@@H]1C[C@H](OC(=O)/C=C/c1ccc3ccccc3c1)[C@@]1(C)C(=O)[C@H](OC(=O)CCc3ccc(C(=O)c4ccccc4)cc3)C3=C(C)[C@@H](O)C[C@@](O)([C@@H](OC(=O)c4ccccc4)[C@H]21)C3(C)C
MCF7R [1]
  IC50: 860 nM
MCF7R [2]
  Reduction: 0%

## CC(=O)O[C@H]1C(=O)[C@]2(C)[C@@H](OC(C)=O)C[C@H]3OC[C@@]3(OC(C)=O)[C@H]2[C@H](OC(=O)CCc2ccc3ccccc3c2)[C@]2(O)C[C@H](OC(C)=O)C(C)=C1C2(C)C
MDA-MB-435 [7]
  IC50: 650 nM
MDA-MB-435 [8]
  Reduction: 24%

## CC(=O)O[C@H]1C(=O)[C@]2(C)[C@@H](OC(=O)CNC(=O)c3ccc4ccccc4c3)C[C@H]3OC[C@@]3(OC(C)=O)[C@H]2[C@H](OC(=O)c2ccccc2)[C@]2(O)C[C@H](O)C(C)=C1C2(C)C
MCF7R [1]
  IC50: 500 nM
MCF7R [2]
  Reduction: 42%

## CC(=O)O[C@@]12CO[C@@H]1C[C@H](O)[C@@]1(C)C(=O)[C@H](O)C3=C(C)[C@@H](OC(=O)/C=C/c4ccc5ccccc5c4)C[C@@](O)([C@@H](OC(=O)c4ccccc4)[C@H]21)C3(C)C
MCF7R [1]
  IC50: 100 nM
MCF7R [2]
  Reduction: 88%

## CC(=O)O[C@H]1C(=O)[C@]2(C)[C@@H](OC(=O)/C=C/c3ccc(C(=O)c4ccccc4)cc3)C[C@H]3OC[C@@]3(OC(C)=O)[C@H]2[C@H](OC(=O)c2ccccc2)[C@]2(O)C[C@H](O)C(C)=C1C2(C)C
MCF7R [5]
  IC50: 1.6 nM

## CC(=O)O[C@@]12CO[C@@H]1C[C@H](O)[C@@]1(C)C(=O)[C@H](O)C3=C(C)[C@@H](OC(=O)CCc4ccc5ccccc5c4)C[C@@](O)([C@@H](OC(=O)c4ccccc4)[C@H]21)C3(C)C
MCF7R [1]
  IC50: 540 nM
MCF7R [2]
  Reduction: 37%

## CC(=O)O[C@H]1C(=O)[C@@]2(C)[C@H]([C@H](OC(=O)c3ccccc3)[C@]3(O)C[C@H](OC(=O)[C@H](O)[C@@H](NC(=O)c4ccccc4)c4ccccc4)C(C)=C1C3(C)C)[C@]1(OC(C)=O)CO[C@@H]1C[C@@H]2O [PACLITAXEL]
MCF7R [11]
  IC50: 860 nM
MCF7R [12]
  Reduction: 0%
MDA-MB-435 [13]
  IC50: 860 nM
MDA-MB-435 [14]
  Reduction: 0%
